The results in this text go back to patent publication US8637679B2, “Process for the isolation of organic compounds useful for the treatment of cancer” (Council of Scientific and Industrial Research, priority 2011, dated 2014).

One data set deals with Vero. The data set can be described thus: MTT cell viability assay, Vero normal cells. The class given is cell-based, African monkey. For orientation: Formazan colour is commonly taken as a measure of viable cells.
The next data set deals with LN229. The data set can be described thus: MTT cell viability assay, LN229. The conditions noted are these: Homo sapiens, LN-229; LN229, 48 hrs. The class given is cell-based, human. The method, then: (§1) Human cervical cancer cell lines (HeLa, ME-180 and SiHa), brain tumor cell lines (U87MG, U373MG, U87MG EGFRvIII, T98G, A172 and LN229), lymphoid leukemia (MOLT-3, MOLT-4, REH and CEMC-7), myloid leukemia (K562), pancreatic cancer (MIAPaCa-2, AsPC-1, Panc-1 and Panc 10.05), lung cancer (A549) and colon cancer (HCT116 and SW480) cell lines from American Type Culture Collection, Manassas, Va., USA were grown in IMDM or RPMI (cell specific) Medium supplemented with 10% fetal bovine serum and 1% antibiotic-antimycotic. Cells were cultured in 37° C. in an atmosphere of 5% CO2.
(§2) Viability of cancer cell lines after treatment as at the indicated times was determined by MTT assay. Briefly, 10,000 cells were plated in triplicate in 96 well plates and incubated for 24 and 48 hours in complete media in presence of varying dose of mahanine (0-50 μM). 100 ug MTT was added in each well. Incubate the plate for 1-4 hours at 37° C. and humidified 5% CO2 atmosphere. Absorbance was recorded at 550 nm with 96 well plate readers.

Another data set relates to U87MGEGFRvIII. As to the kind of experiment: MTT cell viability assay, U87MGEGFRvIII. The class given is cell-based. Particulars: Homo sapiens, 48 hrs treatment. The procedure:
as §1, §2

Another data set relates to T98G. As to the kind of experiment: MTT cell viability assay, T98G. The class given is cell-based, human. Particulars: Homo sapiens, 48 hrs. The method, then:
as §1, §2

In a further data set the test system is CEM C7. The data set can be described thus: MTT cell viability assay, CEM C7. The conditions noted are these: Homo sapiens; CEM C7, 48 hrs. The class given is cell-based, human. The procedure:
as §1, §2

A further data set addresses Hsp90β (Homo sapiens, UniProt P08238). The data set can be described thus: γ-ATP sepharose binding assay, Hsp90β. The conditions noted are these: mahanine at 50 and 100 μM. The procedure: 5 μg of purified Hsp90α and Hsp90β were pre-incubated separately on ice with 200 μL incubation buffer (10 mM Tris-Hcl, 50 mM KCl, 5 mM MgCl2, 2 mM DTT, 20 mM Na2MoO4, 0.01% NP40, pH 7.5) containing mahanine or 17-AAG and incubated for 30 mins on ice. After the incubation, 25 μL pre-equilibrated γ-phosphate ATP sepharose added and again incubated at 37° C. with frequent agitation.
Sepharose subsequently washed and analyzed by SDS-PAGE. Then the blot was probed with anti Hsp90 antibody and developed by ECL.

The next data set has as its system U87MG. The data set can be described thus: MTT cell viability assay, U87MG. The class given is cell-based, human. Particulars: Homo sapiens, U-87 MG, 48 hrs. The method, then: as §1, §2
The next data set concerns Molt-4. The data set can be described thus: MTT cell viability assay, Molt-4. The class given is cell-based, human. Particulars: Homo sapiens; Molt-4, 48 hrs. The procedure:
as §1, §2

Data set [1] relates to MIAPaCa-2. The data set can be described thus: In vitro colony formation on matrigel. The class given is cell-based, human.
Data set [2] is described as follows: Tissue toxicity in K562 xenograft bearing nude mice. The class given is in vivo.
The subject of another data set is BxPC-3. As to the kind of experiment: Scratch-wound haptotaxis assay, BxPC-3. The class given is cell-based, human. The conditions noted are these: BxPC-3, highest treated cells, 6 hrs. The procedure: Highly and moderately invasive pancreatic cancer cell lines, MIAPaCa-2 and BxPC3 (1×10^6/ml/well) were cultured to >90% confluence in 6 well plate. Consequently, cell were rinsed with PBS and starved in low serum media (2 ml containing 0.5%-0.1% serum in RPMI-1640 for MIAPaCa-2 and BxPC-3) for overnight. On the following day, three separate scratch-wounds were made through the confluent cells. Scratched plate was rinsed with PBS and replaced with serum starved media containing successive doses of mahanine or EtOH for 6 hrs. Picture was taken by using phase contrast at 10× accordingly.

For data set [3], the system named is Normal cells [heart, liver, muscle and peripheral blood mononuclear cells (PBMC)]. The data set can be described thus: In vitro testing on normal cells. The class given is cell-based, rat. The method, then: The cardiomyocytes from 2-day-old neonatal rat were isolated. Briefly, heart was excised and minced in pre warmed (37° C.) Ads buffer (1.2M NaCl, 198 mM HEPES, 54 mM KCl, 8.3 mM MgSO4, 55.4 mM glucose, 95 mM NaH2PO4), digested in typeII Collagenase 0.05% and Pancreatin in 3-successive digestions of 15 minutes each. Supernatant was pooled and cells palleted at 2000 g, 10 minutes. Cells were resuspended and plated in collagen coated T-25 flaks in Medium-199 enriched with 10% Fetal Bovine Serum and 1% antibiotic-antimycotic.
The hepatocytes from 2-day-old neonatal rat were isolated. Briefly, The liver were perfused through the portal vein with a calcium-free solution consisting of 150 mM NaCl, 2.8 mM KCl, 5.5 mM glucose, and 25 mM HEPES (pH 7.6) for 10 min, followed by mincing and digestion in DMEM containing 0.05% collagenase type IV for 30 minutes. The cells were centrifuged (2000 g, 10 minutes) and dispersed in DMEM enriched with 10% fetal Bovine Serum, 1% antibiotic-antimycotic.
The skeletal muscles from 2-day-old neonatal rat were isolated. Briefly, Soleus muscles were dissected minced and digested with 0.2% Type II Collagenase and 0.05% trypsin in Phosphate buffered Saline (PBS) pH 7.4, 0.15 M NaCl. […]
Viability of cancer cell lines after treatment as at the indicated times was determined by MTT assay. […] Absorbance was recorded at 550 nm with 96 well plate readers.

The subject of data set [4] is glioma cells (U87MG, U373MG, LN229, A172 and T98G). The data set can be described thus: MTT assay, panel of glioma cell lines. The class given is cell-based, human. The conditions noted are these: Homo sapiens, Glioma cell, range over U87MG, 48 hr, read-out: IC50 values against different glioma cell lines. The procedure: as §1, §2
Data set [5] concerns MIAPaCa-2. As to the kind of experiment: Transmigration assay (EGF-driven). The class given is cell-based, human. Particulars: 24 hrs exposure. The procedure:
MIAPaCa-2 cells were treated with mahanine in dose responsive manner for 24 hrs. Afterward, different growth factors (VEGF, EGF and PDGF) were dissolved in medium at a final concentration of 20 ng/ml and added into the outer well of the 24-transwell plate (PromoCell Heidelberg, Germany) as per manufacturer instruction. Mahanine-pretreated cells (5×10^4 cells/well/500 μl) were added into the insert and incubated at in a humidified incubator (37° C., 5% CO2) for 6 hours and subsequently invaded cells were fixed with chilled methanol and stained with 0.1% crystal violet. Random fields were photographed and quantified under the phase contrast microscope.

Sequence of Hsp90β (P08238 whole entry): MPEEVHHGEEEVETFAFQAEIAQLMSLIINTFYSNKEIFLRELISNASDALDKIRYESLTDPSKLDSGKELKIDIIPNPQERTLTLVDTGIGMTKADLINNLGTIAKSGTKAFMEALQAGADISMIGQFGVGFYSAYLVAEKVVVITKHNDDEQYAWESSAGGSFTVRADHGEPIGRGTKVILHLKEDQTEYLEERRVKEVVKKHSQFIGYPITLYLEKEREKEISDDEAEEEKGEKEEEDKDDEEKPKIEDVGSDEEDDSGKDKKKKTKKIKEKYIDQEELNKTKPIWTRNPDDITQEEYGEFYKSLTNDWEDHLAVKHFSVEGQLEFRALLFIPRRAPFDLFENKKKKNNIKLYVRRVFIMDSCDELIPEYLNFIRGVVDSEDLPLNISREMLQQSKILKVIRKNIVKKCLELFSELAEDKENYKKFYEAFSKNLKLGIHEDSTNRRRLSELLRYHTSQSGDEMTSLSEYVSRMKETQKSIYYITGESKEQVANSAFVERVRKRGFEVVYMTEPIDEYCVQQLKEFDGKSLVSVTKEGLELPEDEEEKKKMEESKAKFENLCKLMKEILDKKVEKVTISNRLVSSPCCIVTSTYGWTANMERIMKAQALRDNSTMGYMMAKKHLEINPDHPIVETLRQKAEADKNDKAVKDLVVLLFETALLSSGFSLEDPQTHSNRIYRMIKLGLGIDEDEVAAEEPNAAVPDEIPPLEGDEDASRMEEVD

With `CC(C)=CCCC1(C)C=Cc2c(c(C)cc3c2[nH]c2cc(O)ccc23)O1` (stereo not shown) [Mahanine, mahanine], the IC50 (commonly the midpoint of a concentration-inhibition curve) in the data set with Vero (Primates, Vero normal cell line, 48 hrs) is over 100 µM; in the data set on LN229, 13.7 ± 0.3 µM; in the data set on U87MGEGFRvIII, about 14 µM; in the data set with T98G, 16.1 ± 0.9 µM; in the data set on CEM C7, 10.2 ± 0.1 µM; with U87MG, 13.4 ± 0.4 µM. The IC50 in the data set on Molt-4 was 10.7 ± 0.6 µM; in data set [4] it was 12 to 17 µM. Also, in the data set with Vero (proliferating normal cells, in vitro), the “sensitivity of Vero cells” value is recorded as “less sensitive”. In addition, the “effect on ATP binding to purified Hsp90” value at Hsp90β is “could not reduce”. Besides, the colony formation result in the data set on MIAPaCa-2 [1] (15 μM, within 24 hrs) is given as “absolutely inhibited”; with MIAPaCa-2 [1] (20 μM, after 72 hrs), “could not colonize”. The inhibition (usually how much of the control response was suppressed) at 10 µM in the data set with MIAPaCa-2 [1] (Homo sapiens, MIA PaCa-2, 10 μM, within 24 hrs) is about 20%. Also, the “toxicity towards nonspecific tissues (lung, liver, spleen)” value in data set [2] is on record as “no toxic effect”. In the data set with BxPC-3, the “wound closure / migratory cells” value was under 5%. The same compound gave an inhibition at 50 µM in [3] (PBMC, mahanine at 50 μM, normal rat tissue cells, Vero and WI-38) of 15 to 20%. The “sensitivity of normal cells” value in data set [3] (heart, liver, muscle and PBMC, in vitro) was “less sensitive”. Further, the “EGF-driven MIAPaCa-2 migration, % of controls” value in the data set on MIAPaCa-2 [5] (~0.6×IC50 (10 μM)) is listed as 48.6 % of controls. Besides, the “EGF-driven MIAPaCa-2 migration” value in the data set on MIAPaCa-2 [5] (~1×IC50, 15 μM) was “nearly complete inhibition”.
